Where two headings read alike, the source gives them in different places.
System: CFTR-Y122X
Experiment: CFTR-Y122X assay (dual reporter isogenic Hek293 cell lines, Renilla luminescence readthrough)
Type: cell-based
Conditions: Homo sapiens, HEK293
Description: Activity of compounds of the present invention was examined in recombinant, dual reporter isogenic Hek293 cell lines (“CFTR-Y122X assay”). The engineered reporter constructs contained the 18 bp sequence stretch corresponding to a common Y122X PTC mutation in CFTR class I mutant patients (see Sermet-Gaudelus, BMC Medicine, 2007, 5(5)). Instead of a tyrosine (Y) in position 122 of the CFTR protein a TGA stop codon interrupts the open reading frame (Y122X) of the corresponding mRNA. This TGA stop codon triplet (followed by the pyrimidine base cytosine) is permissive to aminoglycoside mediated translational readthrough which served as positive control for high throughput screening. A corresponding TAA stop codon variant and a wildtype non mutated construct was used for confirmation and counter screening. The CFTR sequence was sandwiched between an eGFP reporter, and a triple myc tag sequence fused to a full length Renilla reporter. All sequences, including an intron containing one positioned pre-eGFP (b-globin intron) were cloned in frame. The corresponding expression constructs were stably expressed in the isogenic HEK-R4 cell host (Invitrogen Incorp.) and selected by blasticidin resistance. The isogenic integration of the construct minimizes gene dose effects and improves assay reproducibility. Stably integrated single cell derived clones were selected and characterized for aminoglycoside mediated readthrough. […] Readthrough of Y122X accumulates an intracellular localized fusion protein approximately 65.5 kDa in size as controlled by western blot analysis and immunofluorescence using an anti-renilla antibody. The eGFP reporter pre-PTC mutation serves as visual control for genetic stability of the screening clones and minimizes protein degradation of small fusion protein amounts. In the assay, compound concentration was 10 μM. In miniaturized 1536 well format 2000 cells were dispensed in 4 μl/well and incubated for 24 h at 37° C., 5% CO2. 40 nl compounds were placed on the cells with control wells containing 1 ul Paramomycin and 14.4 mM final concentration. Compounds were incubated for 24 h. Renilla Glo substrate (2.5 ul) was added and plates were centrifuged and processed for luminescence measurement using various readers. Activity calculation was done using the equation: A1 (%)=100*(S−NC)/(AC−NC) where AC, NC and S correspond to active controls (injection of Stimulation buffer=100% stimulation), neutral controls (buffer injection which Iloprost EC10) and screening samples (S). NC corresponds to 0% activity whereas AC is 100% activity (14 mM paromomycin). False positive artefacts were removed in confirmation and validation screening using the same assay format followed by counterscreening using the respective wildtype construct (w/o PTC mutation) cell model. Compounds were tested up to 100 μM compound concentration.

[1] = nonsense mutation suppression, 100% = 14 mM paromomycin, 24 h incubation, tested up to 100 μM, read-out: Amax [%]
[2] = nonsense mutation suppression, 24 h incubation
[3] = at the above dose ranges (up to 100 μM), read-out: suppression, % of paromomycin reference activity

CC(C)c1nc2c(c(=O)c3cc(Cl)ccc3n2C)c(=O)n1C1CCCC1 [Example 2.11, 7-chloro-3-cyclopentyl-2-isopropyl-10-methylpyrimido[4,5-b]quinoline-4,5(3H,10H)-dione]
Emax [1]: 192% | AC50 [2]: 10.7 µM

CC(C)c1nc2c(c(=O)c3ccccc3n2C)c(=O)n1C1CCCC1 [Example 2.15, 3-cyclopentyl-2-isopropyl-10-methylpyrimido[4,5-b]quinoline-4,5(3H,10H)-dione]
Emax [1]: 275% | AC50 [2]: 3.8 µM

CCCc1nc2c(c(=O)c3ccccc3n2C)c(=O)n1C1CCCC1 [Example 2.21, 3-cyclopentyl-10-methyl-2-propylpyrimido[4,5-b]quinoline-4,5(3H,10H)-dione]
Emax [1]: 214% | AC50 [2]: 7.6 µM

Cn1c2ccccc2c(=O)c2c(=O)n(C3CCCCCC3)c(-c3ccc(Cl)cc3Cl)nc21 [3-cycloheptyl-2-(2,4-dichlorophenyl)-10-methylpyrimido[4,5-b]quinoline-4,5(3H,10H)-dione]
Emax [3]: < 5%

CC(C)c1nc2c(c(=O)c3ccccc3n2C)c(=O)n1-c1c(Cl)cccc1Cl [Example 1.17, 3-(2,6-dichlorophenyl)-2-isopropyl-10-methylpyrimido[4,5-b]quinoline-4,5(3H,10H)-dione]
Emax [1]: 230% | AC50 [2]: 8.8 µM

Cn1c2ccccc2c(=O)c2c(=O)n(C3CCCCC3)c(-c3cccc(Br)c3)nc21 [Example 2.30, 2-(3-bromophenyl)-3-cyclohexyl-10-methylpyrimido[4,5-b]quinoline-4,5(3H,10H)-dione]
Emax [1]: 71% | AC50 [2]: 22.2 µM

Cn1c2ccccc2c(=O)c2c(=O)n(C3CCCC3)c(-c3ccccc3Cl)nc21 [Example 2.35, 2-(2-chlorophenyl)-3-cyclopentyl-10-methylpyrimido[4,5-b]quinoline-4,5(3H,10H)-dione]
Emax [1]: 31% | AC50 [2]: 9.4 µM

CC(C)c1nc2[nH]c3ccccc3c(=O)c2c(=O)n1C1CCCC1 [Example 2.2, 3-cyclopentyl-2-isopropylpyrimido[4,5-b]quinoline-4,5(3H,10H)-dione]
Emax [1]: 235% | AC50 [2]: 2.1 µM

CC(C)c1nc2c(c(=O)c3ccccc3n2C)c(=O)n1-c1ccccc1 [Example 1.28, 2-isopropyl-10-methyl-3-phenylpyrimido[4,5-b]quinoline-4,5(3H,10H)-dione]
Emax [1]: 361% | AC50 [2]: 7.6 µM

CC(C)c1nc2c(c(=O)c3cc(F)ccc3n2C)c(=O)n1-c1ccccc1 [Example 1.23, 7-fluoro-2-isopropyl-10-methyl-3-phenylpyrimido[4,5-b]quinoline-4,5(3H,10H)-dione]
Emax [1]: 139% | AC50 [2]: 13.4 µM

CC1CC(c2nc3c(c(=O)c4ccccc4n3C)c(=O)n2-c2ccccc2)C1 (stereo not shown) [Example 1.6, 10-methyl-2-(3-methylcyclobutyl)-3-phenylpyrimido[4,5-b]quinoline-4,5(3H,10H)-dione]
Emax [1]: 165% | AC50 [2]: 6.1 µM

CC(C)c1nc2c(c(=O)c3cccc(Cl)c3n2C)c(=O)n1C1CCCC1 [Example 2.51, 9-chloro-3-cyclopentyl-2-isopropyl-10-methylpyrimido[4,5-b]quinoline-4,5(3H,10H)-dione]
Emax at 25 µM (measured at 25 μM compound concentration (footnote a), read-out: Amax [%]: % nonsense mutation suppression relative to paromomycin reference activity): 6%

C=CCn1c2ccccc2c(=O)c2c(=O)n(-c3ccccc3)c(C(C)C)nc21 [Example 1.2, 10-allyl-2-isopropyl-3-phenylpyrimido[4,5-b]quinoline-4,5(3H,10H)-dione]
Emax [1]: 63%

CC(C)c1nc2c(c(=O)c3ccccc3n2CCO)c(=O)n1-c1ccccc1 [Example 1.42, 10-(2-hydroxyethyl)-2-isopropyl-3-phenylpyrimido[4,5-b]quinoline-4,5(3H,10H)-dione]
Emax [1]: 117% | AC50 [2]: 15.7 µM

Cn1c2ccccc2c(=O)c2c(=O)n(C3CCCC3)c(C3CCCN(C4CCCC4)C3)nc21 (stereo not shown) [3-cyclopentyl-2-(1-cyclopentylpiperidin-3-yl)-10-methylpyrimido[4,5-b]quinoline-4,5(3H,10H)-dione]
Emax [3]: < 5%

C=CCn1c2ccccc2c(=O)c2c(=O)n(C3CCCC3)c(C(C)C)nc21 [Example 2.1, 10-allyl-3-cyclopentyl-2-isopropylpyrimido[4,5-b]quinoline-4,5(3H,10H)-dione]
Emax [1]: 102% | AC50 [2]: 21 µM

CC(C)c1nc2c(c(=O)c3cc(Br)ccc3n2C)c(=O)n1-c1ccccc1 [Example 1.25, 7-bromo-2-isopropyl-10-methyl-3-phenylpyrimido[4,5-b]quinoline-4,5(3H,10H)-dione]
Emax [1]: 68% | AC50 [2]: 19.5 µM

Cn1c2ccccc2c(=O)c2c(=O)n(-c3cccc(Cl)c3)c(C3CCCCC3)nc21 [3-(3-chlorophenyl)-2-cyclohexyl-10-methylpyrimido[4,5-b]quinoline-4,5(3H,10H)-dione]
Emax [3]: < 5%

CCCc1nc2c(c(=O)c3ccccc3n2C)c(=O)n1C1CCCCC1 [Example 2.24, 3-cyclohexyl-10-methyl-2-propylpyrimido[4,5-b]quinoline-4,5(3H,10H)-dione]
Emax [1]: 170% | AC50 [2]: 2.3 µM

CC(C)c1ccccc1-n1c(C(C)C)nc2c(c(=O)c3ccccc3n2C)c1=O [Example 1.38, 2-isopropyl-3-(2-isopropylphenyl)-10-methylpyrimido[4,5-b]quinoline-4,5(3H,10H)-dione]
Emax [1]: 15%

CC(C)c1nc2c(c(=O)c3ccccc3n2C)c(=O)n1-c1ccccc1C(F)(F)F [Example 1.20, 2-isopropyl-10-methyl-3-(2-(trifluoromethyl)phenyl)pyrimido[4,5-b]quinoline-4,5(3H,10H)-dione]
Emax [1]: 65% | AC50 [2]: 13.8 µM

CC(C)c1nc2c(c(=O)c3ccccc3n2C)c(=O)n1-c1ccccc1Cl [Example 1.16, 3-(2-chlorophenyl)-2-isopropyl-10-methylpyrimido[4,5-b]quinoline-4,5(3H,10H)-dione]
Emax [1]: 200% | AC50 [2]: 9.3 µM

Cc1ccc(-c2nc3c(c(=O)c4ccccc4n3C)c(=O)n2C2CCCCC2)cc1 [Example 2.36, 3-cyclohexyl-10-methyl-2-(p-tolyl)pyrimido[4,5-b]quinoline-4,5(3H,10H)-dione]
Emax [1]: 29% | AC50 [2]: 3.5 µM

COc1ccc2c(c1)c(=O)c1c(=O)n(C3CCCC3)c(C(C)C)nc1n2C [Example 2.10, 3-cyclopentyl-2-isopropyl-7-methoxy-10-methylpyrimido[4,5-b]quinoline-4,5(3H,10H)-dione]
Emax [1]: 25% | AC50 [2]: 25 µM

CC(C)c1nc2c(c(=O)c3cc(C(F)(F)F)ccc3n2C)c(=O)n1-c1ccccc1 [2-isopropyl-10-methyl-3-phenyl-7-(trifluoromethyl)pyrimido[4,5-b]quinoline-4,5(3H,10H)-dione]
Emax [3]: < 5%

CN(C)c1nc2c(c(=O)c3ccccc3n2C)c(=O)n1-c1ccccc1 [Example 3.3, 2-(dimethylamino)-10-methyl-3-phenylpyrimido[4,5-b]quinoline-4,5(3H,10H)-dione]
Emax [1]: 18% | AC50 [2]: 3.5 µM

CCSc1nc2[nH]c3ccccc3c(=O)c2c(=O)n1-c1ccccc1 [Example 3.1, 2-(ethylthio)-3-phenylpyrimido[4,5-b]quinoline-4,5(3H,10H)-dione]
Emax [1]: 65% | AC50 [2]: 5.8 µM

CCC(CC)c1nc2c(c(=O)c3ccccc3n2C)c(=O)n1-c1ccccc1 [Example 1.9, 10-methyl-2-(pentan-3-yl)-3-phenylpyrimido[4,5-b]quinoline-4,5(3H,10H)-dione]
Emax [1]: 200% | AC50 [2]: 11.7 µM

From patent publication US9649314B2, “Pyrimido[4,5-b]quinoline-4,5(3H,10H)-diones” (NOVARTIS AG, priority 2012, dated 2017)
